The values below are quoted from earlier work in patent publication US11819508B2 (priority 2020, dated 2023).

The conditions of data set [1]: in vivo.
The test system of a further data set is Covid-19. As to conditions: subcutaneous; subjects hospitalized with Covid-19.

Read-outs that look alike come from different tables or passages of the source.

As for “2-[[(hexadecyloxy)hydroxyphosphenyl]oxy]-N,N,N-trimethylethylammonium inner salt [Miltefosine]”, the half-life result in data set [1] is reported as “long half-life”. Further, the solubility result is “freely soluble” (in aqueous solutions); “readily soluble” (in water or saline solutions); “freely soluble” (in water, 0.1 N HCl or NaOH, methanol, and ethanol).

B1: IFN β-1b: cytokine in the interferon family, subcutaneous (protein, UniProt P01574 22-187, looked up, variant C17S)
Interferon beta: MSYNLLGFLQRSSNFQSQKLLWQLNGRLEYCLKDRMNFDIPEEIKQLQQFQKEDAALTIYEMLQNIFAIFRQDSSSTGWNETIVENLLANVYHQINHLKTVLEEKLEKEDFTRGKLMSSLHLKRYYGRILHYLKAKEYSHCAWTIVRVEILRNFYFINRLTGYLRN
modifications: lacks N-terminal Met1, non-glycosylated
notes: cytokine in the interferon family, subcutaneous
On to B1, for which the “clinical improvement as assessed by NEWS 2 and SOFA score and shortened hospital stay” value in the data set on Covid-19 is listed as “clinical improvement”.
